Test results from US11129823B2 (Aldeyra Therapeutics, Inc., priority 2016, dated 2021).

Legend:
[1] = test system: patients with active noninfectious anterior uveitis; experiment: Phase II randomized, investigator-masked, comparator-controlled trial of NS2 eye drops in anterior uveitis; type: in vivo, human
Description: Group 2 patients will alternate doses of NS2 and Pred Forte®. All patients will be instructed to maintain at least one hour between any two doses. Patients will be followed for up to 8 weeks and monitored for safety and efficacy at six scheduled visits. Efficacy will be assessed by standard ophthalmic examination procedures and response to treatment will be graded according to established uveitis scales. […] Rescue therapy will consist of therapy dosed at the clinical discretion of the treating physician. Rescued patients will receive a follow-up assessment one week after rescue, and then they will be discontinued from the study. Study drug will be self-administered by the patient (or caregiver). Subjects will be instructed to administer study drug per the treatment arm they are assigned to. Subjects randomized to NS2 or Pred Forte® will begin with one drop in the study eye four (4) times per day. Subjects randomized to the NS2 and Pred Forte® group will be instructed to administer one drop of NS2 four (4) times per day alternating with Pred Forte® two (2) times per day. Pred Forte® will be tapered weekly and continued for up to five (5) weeks as described in Table 1. Based the pre-clinical activity of NS2 in diminishing TH1 cytokines as well as ocular inflammation in a pre-clinical model of uveitis, a Phase II trial of topical ocular NS2 was initiated in patients with active noninfectious anterior uveitis, a rare but serious autoimmune-like ocular disease that can lead to blindness. The design of the anterior uveitis Phase II trial was a randomized, parallel group, investigator-masked, comparator-controlled trial to evaluate the safety and efficacy of NS2 ophthalmic solution in patients with anterior uveitis. The trial assessed signs and symptoms of anterior uveitis including anterior chamber cell counts, which are utilized as the primary endpoints in registration studies of anterior uveitis. The study was conducted at 15 clinical sites in the US. […] Pred Forte® was dosed two (2) times daily and then tapered over a 4 week period. […] Prior to un-masking, one subject in the Pred Forte® group was removed from the ITT population for a history of ovarian cancer within the past 5 years, which met exclusion criteria. […] Patients were followed for 8 weeks and monitored for safety and efficacy at six scheduled visits. Efficacy was assessed by standard ophthalmic examination procedures including slit lamp examination and response to treatment was graded according to established uveitis scales. The visit schedule included a screening randomization visit, a day 4 telephone follow-up visit, and clinic visits at week 1, 2, 4, and 8. […] Rescued patients were followed through the week 8 end of study visit.

[2] = Phase 1 clinical study, 7 day QID topical dosing; type: in vivo, human
Procedure: (§1) The proposed proof of concept study will use the 0.5% dose level of NS2. This dose was selected based on the Phase 1 clinical study results under IND 104,497 and a 9-month dog study with QID (OU) dosing at 0.5%, 0.25%, and 0.1% (w/v). […] Based on the safety profile of the 9-month dog study where 0.5% NS2 was administered QID topically and the 7 day Phase 1 clinical study, a maximum treatment duration of 6-weeks was proposed.

[3] = 9-month dog study with QID (OU) topical dosing; type: in vivo
Procedure: as §1

[4] = in vivo; settings: primates
Procedure: To allow for continuous exposure, NS2 0.5% will be administered at a dose of 4 times per day in Group 1 and Group 2. Aldehydes at concentrations of 10 μM are cytotoxic in cell culture (Maeda et al., 2012, Nat Chem Biol. 8(2):170-8). […] In primates, a single dose of 0.5% NS2 results in anterior eye tissue concentrations that range from 17.6 μM just after dosing to 1.2 μM three hours post dosing.

[5] = test system: patients with allergic conjunctivitis; experiment: Phase II clinical trial of topical ocular NS2 in allergic conjunctivitis; type: in vivo, human; settings: after a single eye drop
Description: Based on the proposed role of aldehydes in mediating inflammation, in addition to the pre-clinical activity of NS2 in reducing IL-5 and other TH2 cytokines, a Phase II clinical trial of a single dose of topical ocular NS2 was initiated in patients with allergic conjunctivitis, and positive results were obtained from that trial in February 2016. The trial design and data from that trial have been reported previously. […] The positive clinical effects of NS2 continued […].

[6] = test system: TH1 and TH2 inflammatory cytokines, IL-10; settings: systemically administered; cited from earlier work
[7] = test system: ocular inflammation; settings: cited from earlier work

CC(C)(O)c1nc2ccc(Cl)cc2cc1N [NS2]
frequency of ocular stinging and burning ([1]; NS2 treated groups): increased frequency | effects on anterior chamber cell counts ([1]; anterior uveitis population): clinically meaningful effects | tolerability ([1]; anterior uveitis population, 0.5% drops 4 times daily, 6 weeks): generally well tolerated | rescue medication required, proportion of patients ([1]; during the study): 20% | safety concerns (ocular exam scores, intra-ocular pressure, corneal thickness, visual acuity) ([1]; during the study): no safety concerns | subjects withdrawn for an adverse event of stinging ([1]; in vivo): One | ACC improvement of at least 1 grade, proportion of patients with successful response ([1]; time point not given): 53% | reducing inflammatory cell count in the anterior chamber of the eye versus standard of care corticosteroid ([1]; topical ocular): statistically indistinguishable from standard of care corticosteroid administration | grade 0 ACC (anterior chamber cell count) treatment response, proportion of patients ([1]; week 2 study visit, mITT population): 33% | sustained grade 0 ACC treatment response, proportion of patients ([1]; week 8 study visit, mITT population): 40% | tolerability ([2]; 0.5% NS2 group, 7 day QID dosing): well tolerated | concentration at 7 day ([2]; human, plasma, topical, 0.5% NS2, 7 day QID dosing, detection limit, each subject, read-out: plasma levels of NS2): < 5 ng/mL | macroscopic or microscopic evaluations ([3]; 9-month, QID (OU) at 0.5%, 0.25%, 0.1% (w/v)): no abnormal findings | tolerability ([3]; dog, in vivo): well tolerated | anterior eye tissue concentration [4]: 17.6 µM | concentration at 3 h [4]: 1200 nM | ocular itching and tearing [5]: significantly reduced | IL-10 (anti-inflammatory cytokine) [6]: up-regulating | levels of TH1 and TH2 inflammatory cytokines [6]: significantly lowered | activity versus topical ocular corticosteroid administration [7]: compared favorably
